Data from US20230150970A1, “AMINOPYRIMIDINE DERIVATIVES AND THEIR USE AS ARYL HYDROCARBON RECEPTOR MODULATORS” (DONG-A ST CO., LTD., priority 2020, published 2023).

biological target: T1, AhR (Homo sapiens, UniProt P35869); experiment: In Vitro Assay 1: XRE-luciferase reporter assay, antagonism in human cell line (HepG2); details: Assay 1: AhR-Luc Human Antagonism (IC50, nM), values marked *: kynurenine 50 μM, 6 hours
T1 sequence (P35869 11-848): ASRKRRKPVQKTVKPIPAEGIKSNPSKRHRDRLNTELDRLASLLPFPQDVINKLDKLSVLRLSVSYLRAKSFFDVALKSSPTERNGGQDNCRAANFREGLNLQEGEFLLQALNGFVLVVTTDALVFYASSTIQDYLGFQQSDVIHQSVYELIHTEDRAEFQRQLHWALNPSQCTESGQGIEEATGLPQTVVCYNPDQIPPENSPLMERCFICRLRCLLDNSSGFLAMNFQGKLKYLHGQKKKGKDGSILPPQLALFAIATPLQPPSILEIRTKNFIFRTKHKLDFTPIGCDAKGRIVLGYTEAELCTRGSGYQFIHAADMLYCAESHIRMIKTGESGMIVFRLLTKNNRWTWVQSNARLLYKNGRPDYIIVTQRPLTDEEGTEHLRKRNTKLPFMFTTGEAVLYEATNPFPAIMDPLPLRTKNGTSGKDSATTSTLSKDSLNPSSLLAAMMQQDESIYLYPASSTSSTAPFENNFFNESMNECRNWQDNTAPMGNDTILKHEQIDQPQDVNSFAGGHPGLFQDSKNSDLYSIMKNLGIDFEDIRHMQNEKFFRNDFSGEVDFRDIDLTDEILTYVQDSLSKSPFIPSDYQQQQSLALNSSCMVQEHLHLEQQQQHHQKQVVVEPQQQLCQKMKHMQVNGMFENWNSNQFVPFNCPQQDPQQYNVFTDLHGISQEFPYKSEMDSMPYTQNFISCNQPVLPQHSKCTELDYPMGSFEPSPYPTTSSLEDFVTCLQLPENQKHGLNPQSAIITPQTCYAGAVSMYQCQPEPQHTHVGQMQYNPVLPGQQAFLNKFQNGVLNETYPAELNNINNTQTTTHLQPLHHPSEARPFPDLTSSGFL

SMILES | IC50 [nM]
COC(=O)[C@H]1CN(c2cc(-c3ccc(Cl)cc3)nc(-c3cccnc3)n2)CCN1 [Example 78, methyl (R)-4-(6-(4-chlorophenyl)-2-(pyridin-3-yl)pyrimidin-4-yl)piperazine-2-carboxylate] | > 1000
Clc1ccc(-c2cc(N3CCN(c4cccc(Cl)c4Cl)CC3)nc(-c3cccnc3)n2)cc1 [Example 80, 4-(4-chlorophenyl)-6-(4-(2,3-dichlorophenyl)piperazin-1-yl)-2-(pyridin-3-yl)pyrimidine] | > 1000
COc1ccc(OC)c(CN2CCN(c3cc(-c4ccc(Cl)cc4)nc(-c4cccnc4)n3)CC2)c1 [Example 81, 4-(4-chlorophenyl)-6-(4-(2,5-dimethoxybenzyl)piperazin-1-yl)-2-(pyridin-3-yl)pyrimidine] | < 10
OCCN1CCN(c2cc(-c3ccc(Cl)cc3)nc(-c3cccnc3)n2)CC1 [Example 82, 2-(4-(6-(4-chlorophenyl)-2-(pyridin-3-yl)pyrimidin-4-yl)piperazin-1-yl)ethan-1-ol] | < 10
COc1ccccc1N1CCN(c2cc(-c3ccc(Cl)cc3)nc(-c3cccnc3)n2)CC1 [Example 83, 4-(4-chlorophenyl)-6-(4-(2-methoxyphenyl)piperazin-1-yl)-2-(pyridin-3-yl)pyrimidine] | 10 to 100
CCOc1ccccc1N1CCN(c2cc(-c3ccc(Cl)cc3)nc(-c3cccnc3)n2)CC1 [Example 84, 4-(4-chlorophenyl)-6-(4-(2-ethoxyphenyl)piperazin-1-yl)-2-(pyridin-3-yl)pyrimidine] | > 1000
Fc1ccccc1N1CCN(c2cc(-c3ccc(Cl)cc3)nc(-c3cccnc3)n2)CC1 [Example 85, 4-(4-chlorophenyl)-6-(4-(2-fluorophenyl)piperazin-1-yl)-2-(pyridin-3-yl)pyrimidine] | 100 to 1000
O=C(c1ccco1)N1CCN(c2cc(-c3ccc(Cl)cc3)nc(-c3cccnc3)n2)CC1 [Example 86, (4-(6-(4-chlorophenyl)-2-(pyridin-3-yl)pyrimidin-4-yl)piperazin-1-yl)(furan-2-yl)methanone] | 10 to 100
Clc1ccc(-c2cc(N3CCN(CCc4ccccc4)CC3)nc(-c3cccnc3)n2)cc1 [Example 87, 4-(4-chlorophenyl)-6-(4-phenethylpiperazin-1-yl)-2-(pyridin-3-yl)pyrimidine] | 10 to 100
Clc1ccc(-c2cc(NCCN3CCNCC3)nc(-c3cccnc3)n2)cc1 [Example 88, 6-(4-chlorophenyl)-N-(2-(piperazin-1-yl)ethyl)-2-(pyridin-3-yl)pyrimidin-4-amine] | > 1000
Clc1ccc(-c2cc(N3CCN(c4ccccn4)CC3)nc(-c3cccnc3)n2)cc1 [Example 89, 4-(4-chlorophenyl)-6-(4-(pyridin-2-yl)piperazin-1-yl)-2-(pyridin-3-yl)pyrimidine] | 10 to 100
Clc1ccc(-c2cc(N3CCN(CCN4CCOCC4)CC3)nc(-c3cccnc3)n2)cc1 [Example 91, 4-(2-(4-(6-(4-chlorophenyl)-2-(pyridin-3-yl)pyrimidin-4-yl)piperazin-1-yl)ethyl)morpholine] | 10 to 100
Clc1ccc(-c2cc(N3CCN(C/C=C/c4ccccc4)CC3)nc(-c3cccnc3)n2)cc1 [Example 93, trans-4-(4-chlorophenyl)-6-(4-cinnamylpiperazin-1-yl)-2-(pyridin-3-yl)pyrimidine] | 10 to 100
Clc1ccc(-c2cc(N3CCN(c4ccccc4)CC3)nc(-c3cccnc3)n2)cc1 [Example 95, 4-(4-chlorophenyl)-6-(4-phenylpiperazin-1-yl)-2-(pyridin-3-yl)pyrimidine] | 10 to 100

Other lines, results leading:

IC50 [nM] | SMILES
< 10 | CCCN1CCN(c2cc(-c3ccc(Cl)cc3)nc(-c3cccnc3)n2)CC1 [Example 96, 4-(4-chlorophenyl)-6-(4-propylpiperazin-1-yl)-2-(pyridin-3-yl)pyrimidine]
< 10 | Clc1ccc(-c2cc(N3CCN(Cc4ccc5c(c4)OCO5)CC3)nc(-c3cccnc3)n2)cc1 [Example 97, 4-(4-(benzo[d][1,3]dioxol-5-ylmethyl)piperazin-1-yl)-6-(4-chlorophenyl)-2-(pyridin-3-yl)pyrimidine]
> 1000 | OC[C@@H]1CN(c2cc(-c3ccc(Cl)cc3)nc(-c3cccnc3)n2)CCN1 [Example 98, (S)-(4-(6-(4-chlorophenyl)-2-(pyridin-3-yl)pyrimidin-4-yl)piperazin-2-yl)methanol]
10 to 100 | Fc1ccc(N2CCN(c3cc(-c4ccc(Cl)cc4)nc(-c4cccnc4)n3)CC2)cc1 [Example 99, 4-(4-chlorophenyl)-6-(4-(4-fluorophenyl)piperazin-1-yl)-2-(pyridin-3-yl)pyrimidine]
> 1000 | CN1C(C)(C)CC(Nc2cc(-c3ccc(Cl)cc3)nc(-c3cccnc3)n2)CC1(C)C [Example 100, 6-(4-chlorophenyl)-N-(1,2,2,6,6-pentamethylpiperidin-4-yl)-2-(pyridin-3-yl)pyrimidin-4-amine]
100 to 1000 | Clc1ccc(-c2cc(NC3CCCNC3)nc(-c3cccnc3)n2)cc1 (centres unmarked) [Example 101, 6-(4-chlorophenyl)-N-(piperidin-3-yl)-2-(pyridin-3-yl)pyrimidin-4-amine]
100 to 1000 | Clc1ccc(-c2cc(N3CCNCC3)nc(-c3cccnc3)n2)cc1 [Example 102, 4-(4-chlorophenyl)-6-(piperazin-1-yl)-2-(pyridin-3-yl)pyrimidine]
> 1000 | C[C@@H]1CN(c2cc(-c3ccc(Cl)cc3)nc(-c3cccnc3)n2)C[C@H](C)N1 [Example 104, Cis-4-(4-chlorophenyl)-6-(3,5-dimethylpiperazin-1-yl)-2-(pyridin-3-yl)pyrimidine]
10 to 100 | CCN1CCN(c2cc(-c3ccc(Cl)cc3)nc(-c3cccnc3)n2)CC1 [Example 106, 4-(4-chlorophenyl)-6-(4-ethylpiperazin-1-yl)-2-(pyridin-3-yl)pyrimidine]
< 10 | CC(=O)N1CCN(c2cc(-c3ccc(Cl)cc3)nc(-c3cccnc3)n2)CC1 [Example 108, 1-(4-(6-(4-chlorophenyl)-2-(pyridin-3-yl)pyrimidin-4-yl)piperazin-1-yl)ethan-1-one]
> 1000 | CCC1CN(c2cc(-c3ccc(Cl)cc3)nc(-c3cccnc3)n2)CCN1 (centres unmarked) [Example 109, 4-(4-chlorophenyl)-6-(3-ethylpiperazin-1-yl)-2-(pyridin-3-yl)pyrimidine]
< 10 | CCOC(=O)N1CCN(c2cc(-c3ccc(Cl)cc3)nc(-c3cccnc3)n2)CC1 [Example 110, ethyl 4-(6-(4-chlorophenyl)-2-(pyridin-3-yl)pyrimidin-4-yl)piperazine-1-carboxylate]
> 1000 | O=C(O)C1CN(c2cc(-c3ccc(Cl)cc3)nc(-c3cccnc3)n2)CCN1 (centres unmarked) [Example 111, 4-(6-(4-chlorophenyl)-2-(pyridin-3-yl)pyrimidin-4-yl)piperazine-2-carboxylic acid]
> 1000 | COC(=O)C1CNCCN1c1cc(-c2ccc(Cl)cc2)nc(-c2cccnc2)n1 (centres unmarked) [Example 112, methyl 1-(6-(4-chlorophenyl)-2-(pyridin-3-yl)pyrimidin-4-yl)piperazine-2-carboxylate]
> 1000 | Clc1ccc(-c2cc(N3CCNC[C@@H]3c3ccccc3)nc(-c3cccnc3)n2)cc1 [Example 113, (S)-4-(4-chlorophenyl)-6-(2-phenylpiperazin-1-yl)-2-(pyridin-3-yl)pyrimidine]
> 1000 | Cc1ccccc1N1CCN(c2cc(-c3ccc(Cl)cc3)nc(-c3cccnc3)n2)CC1 [Example 114, 4-(4-chlorophenyl)-2-(pyridin-3-yl)-6-(4-(o-tolyl)piperazin-1-yl)pyrimidine]
> 1000 | Cc1ccc(N2CCN(c3cc(-c4ccc(Cl)cc4)nc(-c4cccnc4)n3)CC2)cc1 [Example 115, 4-(4-chlorophenyl)-2-(pyridin-3-yl)-6-(4-(p-tolyl)piperazin-1-yl)pyrimidine]
> 1000 | Cc1cccc(N2CCN(c3cc(-c4ccc(Cl)cc4)nc(-c4cccnc4)n3)CC2)c1 [Example 116, 4-(4-chlorophenyl)-2-(pyridin-3-yl)-6-(4-(m-tolyl)piperazin-1-yl)pyrimidine]
100 to 1000 | FC(F)(F)c1cccc(N2CCN(c3cc(-c4ccc(Cl)cc4)nc(-c4cccnc4)n3)CC2)c1 [Example 117, 4-(4-chlorophenyl)-2-(pyridin-3-yl)-6-(4-(3-(trifluoromethyl)phenyl)piperazin-1-yl)pyrimidine]
> 1000 | Clc1ccc(-c2cc(N3CCN(c4ccc(Cl)c(Cl)c4)CC3)nc(-c3cccnc3)n2)cc1 [Example 119, 4-(4-chlorophenyl)-6-(4-(3,4-dichlorophenyl)piperazin-1-yl)-2-(pyridin-3-yl)pyrimidine]
< 10 | COc1ccc(N2CCN(c3cc(-c4ccc(Cl)cc4)nc(-c4cccnc4)n3)CC2)cc1 [Example 120, 4-(4-chlorophenyl)-6-(4-(4-methoxyphenyl)piperazin-1-yl)-2-(pyridin-3-yl)pyrimidine]
